Data as given in patent US10759797B2, “Pharmaceutically acceptable salt of EGFR inhibitor, crystal form thereof, preparation method therefor and application thereof” (Wuxi Shuangliang Biotechnology Co., Ltd., priority 2017, dated 2020).
Counter-ions that a name gives are not always drawn.

How the values were obtained:
Assay type in all cases: physicochemical
[1] = Hygroscopicity study of crystal forms (Chinese Pharmacopoeia 2015, part 4, appendix 9103)
Method: Hygroscopicity comparison study was carried out for various pharmaceutically acceptable salts of EGFR inhibitor present in the form of crystal in Examples 1 to 3 and 5 to 6, the amorphous EGFR inhibitor phosphate salt in Example 4, and the EGFR inhibitor present in a free base form. Tests were conducted according to the method in the Pharmacopoeia of the People's Republic of China, 2015 edition, part 4, appendix 9103 (temperature: 25° C.±1° C., relative humidity: 80%±2%), and the results were as shown in Table 6.
With regard to the description of hygroscopic properties and definition of hygroscopic weight gain, refer to the Pharmacopoeia of the People's Republic of China, 2015 edition, part 4, appendix 9103, experimental guideline of drug hygroscopicity, herein descried by way of example as follows.
Deliquescence: absorb enough water to form a liquid.
Very hygroscopic: hygroscopic weight gain […] 15%.
Hygroscopic: hygroscopic weight gain less than 15% but not less than 2%.
Non- or almost non-hygroscopic: hygroscopic weight gain less than 0.2%.

[2] = Solubility study in artificial gastric fluid (saturated solutions, HPLC linear equation; Pharmacopoeia and BCS classification)
Text: (§1) Various pharmaceutically acceptable salts of EGFR inhibitor present in form of crystal in Examples 1 to 3 and 5 to 6 were classified with reference to the relevant requirements of the Pharmacopoeia of the People's Republic of China and the Bio-pharmaceutics Classification System (BCS).
(§2) (a) Relevant Requirements of Solubility in the Pharmacopoeia of the People's Republic of China, 2015 Edition, General Notices:
(§3) (b) Relevant Requirements of Solubility in BCS: Do=(Mo/Vo)/Cs;
(§4) wherein Do: dose index; Mo: highest single dose of the drug (with reference to the relevant dose of osimertinib, tentatively set to 80 mg); Vo: the volume of body fluid required for dissolving the drug (about 250 ml); Cs: saturated solubility of the drug;
(§5) if Do≤1, solubility is high; and if Do>1, solubility is low.
(§6) Using an EGFR inhibitor free base as a control, linear regression was carried out by plotting peak area versus concentration, and the corresponding linear equation was obtained in the range of 0.025 to 1.5 mg/ml: A=19775.0411c+2.4256, r=1.0000.
Artificial gastric fluid was used as solvent. An appropriate amount of the EGFR inhibitor mesylate salt (crystal form A), p-toluenesulfonate salt (crystal form B), phosphate salt (crystal form C), phosphate salt (amorphous), hydrochloride salt (crystal form C), and citrate salt (crystal form E) prepared in Examples 1 to 6 was weighed, and prepared into saturated solutions. Samples were taken after standing for 1 hour, 4 hours, and 24 hours, respectively, and the concentration of each sample in saturation state was calculated according to the linear equation.

[3] = Solubility study in water (saturated solutions, HPLC linear equation; Pharmacopoeia and BCS classification)
Text: as §1, §2, §3, §4, §5, §6
Water was used as solvent. An appropriate amount of the EGFR inhibitor mesylate salt, p-toluenesulfonate salt, phosphate salt, hydrochloride salt and citrate salt prepared in Examples 1 to 3 and 5 to 6 was weighed, and prepared into saturated solutions. Samples were taken after standing for 1 hour, 4 hours, and 24 hours, respectively, and the concentration of each sample in saturation state was calculated according to the linear equation.

[4] = One month accelerated stability study at 40° C./75% RH (shape, purity, XRPD)
Method: The six pharmaceutically acceptable salts of EGFR inhibitor in Examples 1 to 6 were placed in a condition of 40° C./75% RH, and a one month accelerated stability study was carried out. Samples were taken at the end of 0 and 1 month respectively, and emphasis was placed upon the shape, purity and crystal form stability (XRPD pattern) of the samples.
Stable refers to no occurrence of degradation and no detection of transformation to other crystal forms by analytical means such as chromatography and XRPD.

[5] = Solubility study in water (saturated solutions, HPLC linear equation; Pharmacopoeia and BCS classification); conditions: in water and artificial gastric fluid
[6] = after 1 month at 40° C./75% RH, listed as mesylate salt (crystal form A)
[7] = start of study (0 month), listed as mesylate salt (crystal form A)

Hygroscopicity as compared with that of the EGFR inhibitor present in a free base form ([1]; 25° C./RH 80%, listed as mesylate salt crystal form A): higher hygroscopicity
Weight gain over 6 hours (%) ([1]; 25° C.±1° C., relative humidity 80%±2%, 6 hours): 6.86%
Weight gain over 24 hours (%) ([1]; 25° C.±1° C., relative humidity 80%±2%, 24 hours): 10.64%
Hygroscopicity ([1]; 25° C.±1° C., relative humidity 80%±2%, Pharmacopoeia class): hygroscopic
Pharmacopoeia of the People's Republic of China Solubility level ([2]; artificial gastric fluid): freely soluble
Solubility in artificial gastric fluid, 1 h ([2]; artificial gastric fluid, saturated solution, standing 1 hour): 248.77 mg/mL
Solubility in artificial gastric fluid, 4 h ([2]; artificial gastric fluid, saturated solution, standing 4 hours): 370.37 mg/mL
Solubility in artificial gastric fluid, 24 h ([2]; artificial gastric fluid, saturated solution, standing 24 hours): 379.12 mg/mL
BCS level (Do) ([2]; artificial gastric fluid, Do=(Mo/Vo)/Cs, Mo 80 mg, Vo about 250 ml, Do≤1 solubility high, Do>1 low): 0.0008 < 1
Degradation in the solubility study ([2]; water and artificial gastric fluid, up to 24 hours): no significant degradation
Pharmacopoeia of the People's Republic of China Solubility level [3]: freely soluble
BCS level (Do) ([3]; Do=(Mo/Vo)/Cs, Mo 80 mg, Vo about 250 ml, Do≤1 solubility high, Do>1 low): 0.0013 < 1
Solubility in water, 1 h ([3]; saturated solution, standing 1 hour): 223.02 mg/mL
Solubility in water, 4 h ([3]; saturated solution, standing 4 hours): 224.00 mg/mL
Solubility in water, 24 h ([3]; saturated solution, standing 24 hours): 255.75 mg/mL
XRPD pattern (0 month versus 1 month) ([4]; after 1 month at 40° C./75% RH): consistent
Appearance, 1 month [4, 6]: light brown solid
Purity (%), 1 month [4, 6]: 99.2%
Appearance, 0 month [4, 7]: light brown solid
Purity (%), 0 month [4, 7]: 99.0%
Solubility with reference to Pharmacopoeia solubility classification [5]: high
Compound: C=CC(=O)Nc1cc(Nc2nccc(-c3cn(C)c4cccnc34)n2)c(OC)cc1N(C)CCN(C)C [mesylate salt]
Solubility in artificial gastric fluid compared with water ([2]; artificial gastric fluid versus water): higher solubility in artificial gastric fluid than in water
